# Measurements reported in patent publication US8853215B2, “Derivatives of N-acyl-N′-phenylpiperazine useful (inter alia) for the prophylaxis or treatment of diabetes” (Takeda Pharmaceutical Company Limited, priority 2009, dated 2014).
# Columns and labels:
# Zucker fatty rats = experiment: Repeated drug administration test in Zucker fatty rats, plasma glucose and glycosylated hemoglobin; type: in vivo, Zucker fatty rats (fa/fa)
# Description: The effect of the compound of the present invention on plasma levels of glucose and glycosylated hemoglobin were evaluated using the animal model shown below.
# (§1) Male Zucker fatty rats (fa/fa) and their lean littermates (Fa/?) were bred in Takeda Pharmaceutical Company Limited and maintained on normal diet (CE2, CLAE Japan, Inc.) and tap water. Animals were housed in a temperature-controlled room adjusted to a 12-hour light/12-hour dark cycle beginning at 7:00 and 19:00, respectively. All procedures were conducted according to the experimental animal care use committee of Takeda Pharmaceutical Company Limited.
# From 8 weeks of age, Zucker fatty rats were maintained on a high fat diet (D06110702, 20 kCal % fat) (LSG Corporation, Japan). A compound was suspended in 0.5% (w/v) methylcellulose in water and given orally to rats at a volume of 5 mL/kg of body weight. After 4 days of pre-administration of 0.5% (w/v) methylcellulose, rats were divided based on body weight, glycosylated hemoglobin, and plasma glucose (PG) (n=6 each). Drug administration was started at 15 weeks of age and a drug (10 mg/kg) was administered once a day for 28 days.
# Before and 28 days after the administration, blood samples were obtained from tail vein with sodium heparin as an anticoagulant, followed by plasma separation by centrifugation. Plasma glucose (PG) levels were measured enzymatically by an Autoanalyzer 7180 (Hitachi, Japan). Glycosylated hemoglobin levels were analyzed by a high performance liquid chromatography-based method using an automated analyzer HLC-723 or HLC-723 G7 (Tosoh, Japan). The changes in glycosylated hemoglobin were calculated by subtracting the initial value from final value.
# human RBP4 = human RBP4 (Homo sapiens (Human), UniProt P02753); experiment: Binding assay by Retinol-RBP4-TTR ELISA; details: for IC50: retinol 50 nM, His-tagged human RBP4, biotinylated human TTR, read-out: human RBP4 binding inhibitory activity (IC50 nM)
# Description: The action of the compound of the present invention to inhibit binding of RBP4 and retinol and TTR was evaluated using the Retinol-RBP4-TTR ELISA system shown below.
# 1F: Binding Assay by Retinol-RBP4-TTR ELISA
# This ELISA system detects a complex of RBP4 and TTR based on a retinol-dependent binding of RBP4 to TTR.
# His-tagged human RBP4 used was prepared in the above-mentioned 1C.
# Biotinylate human TTR used was prepared in the above-mentioned 1E.
# Streptavidin (20 μl) (10 μg/ml Streptavidin type II (Wako Pure Chemical Industries, Ltd.), 10 mM Tris-HCl (pH 7.5), 10 mM NaCl) was added to a 384 well black plate (Nunc MaxiSorp, Thermo Fisher Scientific Inc.), and the plate was subjected to centrifugation (1000 rpm, 1 min) and coated overnight at 4° C. The plate was washed twice with PBST (PBS, 0.05% Tween 20, 100 μl/well) and blocked with 25% Block Ace (Snow Brand Milk Products Co., Ltd., PBS, 100 μl/well). The plate was subjected to centrifugation (1000 rpm, 1 min) and incubated at room temperature for 4 hr or overnight at 4° C. The plate was washed twice with PBST (PBS, 0.05% Tween 20, 100 μl/well), and biotinylate human TTR (stock solution concentration 1.0 mg/ml) diluted 750-fold with PBST was added at 20 μl/well. The plate was subjected to centrifugation (1000 rpm, 1 min) and stood still at room temperature for 1.5 hr or overnight at 4° C. The plate was washed 3 times with PBST (100 μl/well), and His-tagged human RBP4 (stock solution concentration 0.96 mg/ml) diluted 4000-fold with a reaction buffer (50 mM Tris-HCl, 150 mM NaCl, 0.005% Tween 20, 1 mM DTT, 0.1% BSA) was added at 10 μl/well. The dilution series (8 doses from 10 mM, 200-fold concentration) of the compound was prepared with DMSO, and 1 μl of each was added to a reaction buffer (200 μl) containing retinol (50 nM) (Sigma-Aldrich Co.). A reaction buffer (200 μl) containing retinol and added with DMSO was used as a positive control, and reaction buffer (200 μl) free of retinol and added with DMSO was used as a negative control. Mixed solutions of retinol and the compound were added to the plate at 15 μl/well. The plate was stirred in a platemixer subjected to centrifugation (1000 rpm, 1 min) and reacted at room temperature for 2 hr. A 35% Block Ace solution diluted with the reaction buffer was added at 10 μl/well, centrifuged (1000 rpm, 1 min) and reacted at room temperature for 30 min. The plate was washed 3 times with PBST (100 μl/well) and SuperSignal ELISA Femto Maximum Sensitivity Substrate reagent (PIERCE, Thermo Fisher Scientific Inc.) was added at 30 μl/well, and the luminescence was measured by a platereader (Wallac).
# The binding inhibitory activity of the compound was determined by 100×(positive control value-test compound value)/(positive control value-negative control value). The binding activity (IC50) was calculated from the binding inhibitory rate at each compound concentration using a graph drawing software, GraphPad Prism (GraphPad Software Inc.).
# RBP4 [1] = target: RBP4 (Rattus norvegicus (Rat), UniProt P04916); experiment: Single administration test in Wistar fatty rats, plasma RBP4 by ELISA; type: in vivo; details: male Wistar fatty rats, 10 mg/kg oral single dose, mean±SD; for RBP4 (% of initial/Control) 0 hr: 0 hr (just before the administration); for RBP4 (% of initial/Control) 4 hr: 4 hr after administration; for RBP4 (% of initial/Control) 7 hr: 7 hr after administration; for RBP4 (% of initial/Control) 24 hr: 24 hr after administration
# Description: The action of the compounds of the present invention to lower plasma RBP4 level was evaluated using the animal model shown below.
# as §1, with “Wistar” for “Zucker”, “(fa/fa)” for “(fa/fa) and their lean littermates (Fa/?)”, “Company.” for “Company Limited.”
# (§2) Male 13-43-week-old Wistar fatty rats were divided into groups randomly. Compounds were suspended in 0.5% (w/v) methylcellulose in water and given orally to Wistar fatty rats at a dose of 10 mg/10 mL/kg of body weight (3-5 rats per group). Blood samples were obtained from tail vein with sodium heparin as an anticoagulant at time 0 hr (just before the administration), 4 hr, 7 hr, and 24 hr after the administration, followed by plasma separation by centrifugation. Plasma RBP4 levels were measured by enzyme-linked immunosorbent assay described in the following section.
# (§3) Plasma samples were analyzed in duplicate for RBP4 by an enzyme-linked immunosorbent assay. Mouse recombinant RBP4 (Takeda Pharmaceutical Company Limited) was used as standards, and the assay range was 0.313-20 ng/ml. Samples were diluted 10,000-fold with phosphate-buffered saline (PBS) (Sigma) containing 10% (w/v) BlockAce (Dainippon Sumitomo Pharma Co., Ltd). Rabbit anti-RBP4 polyclonal antibody (100 μL/well of 50 μg/mL, Hokudo Co, Ltd) was incubated in a 96-well plate (Nalge Nunc International K.K.) for overnight at 4° C. Subsequently, the plates were washed with PBS-T (Wako Pure Chemical Industries, Ltd.) and blocked with PBS containing 25% BlockAce for 1 hr at room temperature. After another washing with PBS-T, samples and standards were applied to the well, and the plates were incubated for 2 hr at room temperature. After a washing the wells, peroxidase-labeled (Dojindo Laboratories) anti-RBP4 (100 μL/well) was added to the wells, and then the plates were incubated for 1 hr at room temperature. After a final washing with PBS-T, substrate solution 3,3,5,5-tetramethylbenzidine (Sigma) was added to the wells, and the plates were placed in the dark for 5-20 min at room temperature. The reaction was stopped with 0.5 M sulphuric acid and the optical density was measured with a spectrophotometer at 450 nm. The changes in plasma RBP4 levels were expressed as % of initial/Control. All data are presented as mean±SD.
# RBP4 [2] = target: RBP4 (Mus musculus (Mouse), UniProt Q00724); experiment: Single administration test in mice, plasma RBP4 by ELISA; type: in vivo; details: male C57BL/6J or ICR mice, 50 mg/kg oral single dose, mean±SD
# Description: The action of the compounds of the present invention to reduce plasma RBP4 level was evaluated using the animal model shown below.
# Male C57BL/6J and ICR mice were purchased from Charles River (Japan) and maintained on a normal diet (CE2, CLAE Japan, Inc.) and tap water. Animals were housed in a temperature-controlled room adjusted to a 12-hour light/12-hour dark cycle beginning at 7:00 and 19:00, respectively. All procedures were conducted according to the experimental animal care use committee of Takeda Pharmaceutical Company.
# as §2, with “Male 6-12-week-old C57BL/6J or ICR mice were housed individually and fed CE2 for 4-6 days. After acclimatization, mice” for “Male 13-43-week-old Wistar fatty rats”, “groups based on their body weight.” for “groups randomly.”, “to mice” for “to Wistar fatty rats”, “of 50” for “of 10”, “weight (three to five mice” for “weight (3-5 rats”, “from orbital” for “from tail”
# as §3, with “Company)” for “Company Limited)”
# [3] = Zucker fatty rats, 10 mg/kg, 28 days repeated administration
Compound,"Glycosylated hemoglobin (%) (Zucker fatty rats; Zucker fatty rats on high fat diet, 10 mg/kg oral once a day for 28 days, change = final minus initial value, mean±SD)","PG (% of initial/Vehicle) (Zucker fatty rats; Zucker fatty rats on high fat diet, 10 mg/kg oral once a day for 28 days, plasma glucose, mean±SD)",effect on PG (in words) (Zucker fatty rats; [3]),effect on glycosylated hemoglobin (in words) (Zucker fatty rats; [3]),IC50 (human RBP4),RBP4 (% of initial/Control) 0 hr (RBP4 [1]),RBP4 (% of initial/Control) 4 hr (RBP4 [1]),RBP4 (% of initial/Control) 7 hr (RBP4 [1]),RBP4 (% of initial/Control) 24 hr (RBP4 [1]),"inhibition at 10 µM (human RBP4; at 10 μM compound, read-out: human RBP4 binding inhibitory activity(% at 10 μM))",RBP4 (% of initial/Control) 0 hr (RBP4 [2]; 0 hr (just before the administration)),RBP4 (% of initial/Control) 4 hr (RBP4 [2]; 4 hr after administration),RBP4 (% of initial/Control) 7 hr (RBP4 [2]; 7 hr after administration),RBP4 (% of initial/Control) 24 hr (RBP4 [2]; 24 hr after administration)
"CC(C)(C)c1ccccc1N1CCN(C(=O)NCC(=O)O)CC1 [Example 6, N-{[4-(2-tert-Butylphenyl)piperazin-1-yl]carbonyl}glycine]",0.95 ± 0.67%,70.0 ± 19.7 % of initial/Vehicle,decreased PG significantly,tended to decrease glycosylated hemoglobin (not significant),540 nM,100 ± 14.1 % of initial/Control,36.2 ± 5.0 % of initial/Control,27.4 ± 5.9 % of initial/Control,104.5 ± 4.4 % of initial/Control,,,,,
"CC(C)(C)c1ccccc1N1CCN(C(=O)CC(=O)O)CC1 [Example 9, 3-[4-(2-tert-Butylphenyl)piperazin-1-yl]-3-oxopropanoic acid]",,,,,54 nM,100.0 ± 8.5 % of initial/Control,49.6 ± 1.3 % of initial/Control,49.2 ± 1.9 % of initial/Control,114.3 ± 6.0 % of initial/Control,,,,,
"CC(C)(C)c1ccccc1N1CCN(C(=O)CCC(=O)NS(C)(=O)=O)CC1 [Example 55, 4-(4-(2-tert-Butylphenyl)piperazin-1-yl)-N-(methylsulfonyl)-4-oxobutanamide]",,,,,64 nM,100.0 ± 5.3 % of initial/Control,36.8 ± 5.8 % of initial/Control,31.6 ± 7.7 % of initial/Control,54.4 ± 14.3 % of initial/Control,,,,,
"CC(C)(C)c1ccccc1N1CCN(C(=O)Cc2nnn[nH]2)CC1 [Example 58, 1-(4-(2-tert-Butylphenyl)piperazin-1-yl)-2-(1H-tetrazol-5-yl)ethanone]",,,,,300 nM,100.0 ± 8.7 % of initial/Control,76.2 ± 11 % of initial/Control,89.1 ± 15.4 % of initial/Control,97.9 ± 10.4 % of initial/Control,,,,,
"CC(C)(C)c1ccccc1N1CCN(C(=O)c2cc(OCC(=O)O)no2)CC1 [Example 216, [(5-{[4-(2-tert-Butylphenyl)piperazin-1-yl]carbonyl}isoxazol-3-yl)oxy]acetic acid]",,,,,,,,,,100%,100.0 ± 16.6 % of initial/Control,43.4 ± 4.7 % of initial/Control,36.9 ± 1.0 % of initial/Control,66.4 ± 28.1 % of initial/Control
